One data set concerns Streptococcus pyogenes. In words: microbe, parasite or virus in culture.
The next data set relates to Burkholderia cepacia. As to the kind of experiment: microbe, parasite or virus in culture.
For data set [1], the system named is Staphylococcus aureus. As to the kind of experiment: microbe, parasite or virus in culture. The settings on record: ATCC 29213.
The next data set relates to Klebsiella pneumoniae. In words: microbe, parasite or virus in culture.
Data set [2] relates to Mycobacterium tuberculosis. In words: microbe, parasite or virus in culture. The settings on record: H37Rv, 168 h.
In the next data set the test system is Pseudomonas aeruginosa. As to the kind of experiment: microbe, parasite or virus in culture.
In data set [3] the test system is Staphylococcus aureus. In words: microbe, parasite or virus in culture. The settings on record: NRS70.
In a further data set the test system is Proteus mirabilis. In words: microbe, parasite or virus in culture.
A further data set concerns Escherichia coli. In words: microbe, parasite or virus in culture. The settings on record: K-12.
For a further data set, the system named is Acinetobacter. In words: microbe, parasite or virus in culture.
The next data set relates to Enterococcus faecalis. As to the kind of experiment: microbe, parasite or virus in culture.
A further data set concerns Streptococcus pneumoniae. As to the kind of experiment: microbe, parasite or virus in culture.
The test system of another data set is Bacillus subtilis. In words: microbe, parasite or virus in culture.
For data set [4] the following is noted: buffer, 18 h, pH 7.4.
The next data set deals with Bacillus anthracis. In words: microbe, parasite or virus in culture. The settings on record: Sterne.
Data set [5] deals with T1, Bifunctional epoxide hydrolase 2 (Homo sapiens, UniProt P34913).
T1 sequence (P34913 whole entry): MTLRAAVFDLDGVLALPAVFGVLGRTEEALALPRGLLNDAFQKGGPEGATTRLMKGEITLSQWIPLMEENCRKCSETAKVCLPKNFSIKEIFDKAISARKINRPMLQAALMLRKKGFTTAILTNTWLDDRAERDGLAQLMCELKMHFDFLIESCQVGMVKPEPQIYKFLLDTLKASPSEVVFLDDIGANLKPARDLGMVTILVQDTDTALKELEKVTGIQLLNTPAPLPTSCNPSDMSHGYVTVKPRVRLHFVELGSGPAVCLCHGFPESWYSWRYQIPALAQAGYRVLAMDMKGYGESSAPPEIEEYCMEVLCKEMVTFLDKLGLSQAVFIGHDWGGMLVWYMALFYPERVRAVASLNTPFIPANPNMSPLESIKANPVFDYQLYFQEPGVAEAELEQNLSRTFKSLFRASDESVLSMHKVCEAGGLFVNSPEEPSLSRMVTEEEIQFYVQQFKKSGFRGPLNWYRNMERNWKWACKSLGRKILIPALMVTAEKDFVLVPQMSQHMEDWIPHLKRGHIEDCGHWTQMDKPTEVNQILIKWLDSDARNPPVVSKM

For another data set, the system named is Proteus vulgaris. As to the kind of experiment: microbe, parasite or virus in culture.

Converted amounts (≈) assume the structure as drawn. Some results are limits rather than exact numbers.

The results in this text go back to ChEMBL document CHEMBL2390858, “Design, synthesis and anti-tuberculosis activity of 1-adamantyl-3-heteroaryl ureas with improved in vitro pharmacokinetic properties” (Bioorg Med Chem, 2013).

Usually solubility stands for the dissolved amount per volume that the medium holds. The low end stands for little dissolved substance, the high end for much dissolved substance. What is called IC50 is the concentration needed to halve the response being measured. Read a high IC50 as weaker potency. With `Cc1noc(NC(=O)NC23CC4CC(CC(C4)C2)C3)c1C#N`, the MIC with Streptococcus pyogenes was above 200 µg/mL; with Burkholderia cepacia, 200 µg/mL (≈ 666 µM); in the data set on Staphylococcus aureus [1] it was above 200 µg/mL; against Klebsiella pneumoniae, above 200 µg/mL; in data set [2], 100 µg/mL (≈ 333 µM); in the data set with Pseudomonas aeruginosa, above 200 µg/mL. The MIC is above 200 µg/mL in the data set with Staphylococcus aureus [3]; above 200 µg/mL against Proteus mirabilis; above 200 µg/mL in the data set with Escherichia coli; above 200 µg/mL in the data set with Acinetobacter; 200 µg/mL (≈ 666 µM) against Enterococcus faecalis; above 200 µg/mL against Streptococcus pneumoniae. In addition, the MIC in the data set on Bacillus subtilis, with Bacillus anthracis and against Proteus vulgaris was above 200 µg/mL each time. In addition, in data set [4], the solubility is 1.2 µg/mL (≈ 4 µM). Also, in data set [5], the IC50 turned out to be 25 nM.

Turning to `CCn1ccc(NC(=O)NC23CC4CC(CC(C4)C2)C3)n1`, the MIC is 0.78 µg/mL (≈ 2.7 µM) in the data set with Streptococcus pyogenes; above 200 µg/mL in the data set on Burkholderia cepacia; above 200 µg/mL against Staphylococcus aureus [1]; above 200 µg/mL in the data set with Klebsiella pneumoniae; 25 µg/mL (≈ 86.7 µM) in [2]; above 200 µg/mL in the data set with Pseudomonas aeruginosa. The MIC in the data set with Staphylococcus aureus [3] is 200 µg/mL (≈ 693 µM); with Proteus mirabilis it was above 200 µg/mL; against Escherichia coli, above 200 µg/mL; against Acinetobacter it was above 200 µg/mL; in the data set on Enterococcus faecalis, above 200 µg/mL; against Streptococcus pneumoniae, 200 µg/mL (≈ 693 µM). Further, the results for the MIC in the data set on Bacillus subtilis, against Bacillus anthracis and with Proteus vulgaris were 200 µg/mL (≈ 693 µM), 100 µg/mL (≈ 347 µM) and above 200 µg/mL, respectively. This compound came in with a solubility in [4] of 10.5 µg/mL (≈ 36.4 µM). The IC50 in [5] was determined as 884 nM.

`O=C(Nc1nccnn1)NC12CC3CC(CC(C3)C1)C2`: the MIC against Streptococcus pyogenes is above 200 µg/mL; with Burkholderia cepacia it was above 200 µg/mL; in the data set with Staphylococcus aureus [1] it was above 200 µg/mL; against Klebsiella pneumoniae it was above 200 µg/mL; in [2], 200 µg/mL (≈ 732 µM); against Pseudomonas aeruginosa, above 200 µg/mL. For the same compound, the MIC with Staphylococcus aureus [3], against Proteus mirabilis, against Escherichia coli, with Acinetobacter, against Enterococcus faecalis and with Streptococcus pneumoniae was above 200 µg/mL each time. The MIC in the data set with Bacillus subtilis, against Bacillus anthracis and in the data set on Proteus vulgaris was above 200 µg/mL each time. In data set [4], this compound had a solubility of 6.8 µg/mL (≈ 24.9 µM). The compound also came in with an IC50 in [5] of 1010 nM.

For `Cc1nc(NS(=O)(=O)c2ccc(NC(=O)NC34CC5CC(CC(C5)C3)C4)cc2)oc1C`, the MIC with Streptococcus pyogenes is above 200 µg/mL; with Burkholderia cepacia, above 200 µg/mL; with Staphylococcus aureus [1] it was above 200 µg/mL; against Klebsiella pneumoniae it was above 200 µg/mL; in data set [2], above 25 µg/mL; in the data set with Pseudomonas aeruginosa, above 200 µg/mL. Besides, the MIC against Staphylococcus aureus [3], against Proteus mirabilis, against Escherichia coli, in the data set with Acinetobacter, against Enterococcus faecalis and against Streptococcus pneumoniae was above 200 µg/mL throughout. The MIC against Bacillus subtilis, with Bacillus anthracis and in the data set on Proteus vulgaris was above 200 µg/mL in each case. In addition, the solubility in [4] was 27.1 µg/mL (≈ 61 µM). Also, the IC50 in [5] was determined as 13 nM.

Regarding `Cn1cc(NC(=O)NC23CC4CC(CC(C4)C2)C3)cn1`, the MIC against Streptococcus pyogenes is above 200 µg/mL; against Burkholderia cepacia, above 200 µg/mL; with Staphylococcus aureus [1] it was above 200 µg/mL; against Klebsiella pneumoniae it was above 200 µg/mL; in data set [2], 50 µg/mL (≈ 182 µM); against Pseudomonas aeruginosa, above 200 µg/mL. Moreover, the MIC against Staphylococcus aureus [3], against Proteus mirabilis, against Escherichia coli, in the data set on Acinetobacter, in the data set on Enterococcus faecalis and against Streptococcus pneumoniae was above 200 µg/mL in each case. Moreover, the MIC with Bacillus subtilis, against Bacillus anthracis and in the data set on Proteus vulgaris was above 200 µg/mL throughout. Also, the solubility in data set [4] was 41.1 µg/mL (≈ 150 µM). For the same compound, in data set [5], the IC50 is 488 nM.

Take `CCn1nc(NC(=O)NC23CC4CC(CC(C4)C2)C3)cc1C`: the MIC against Streptococcus pyogenes is above 200 µg/mL; in the data set with Burkholderia cepacia it was above 200 µg/mL; against Staphylococcus aureus [1], above 200 µg/mL; with Klebsiella pneumoniae, above 200 µg/mL; in data set [2], 12.5 µg/mL (≈ 41.3 µM); in the data set with Pseudomonas aeruginosa, above 200 µg/mL. The MIC against Staphylococcus aureus [3], against Proteus mirabilis, in the data set on Escherichia coli, in the data set with Acinetobacter, in the data set on Enterococcus faecalis and against Streptococcus pneumoniae was above 200 µg/mL throughout. For the same compound, the MIC against Bacillus subtilis, against Bacillus anthracis and with Proteus vulgaris was above 200 µg/mL throughout. Also, the solubility in [4] amounted to 13.2 µg/mL (≈ 43.6 µM). The compound also showed an IC50 in data set [5] of 2510 nM.

Consider `Cc1cc(NS(=O)(=O)c2ccc(NC(=O)NC34CC5CC(CC(C5)C3)C4)cc2)no1`, for which the MIC in the data set on Streptococcus pyogenes was above 200 µg/mL; in the data set with Burkholderia cepacia it was above 200 µg/mL; in the data set with Staphylococcus aureus [1], above 200 µg/mL; against Klebsiella pneumoniae, above 200 µg/mL; in data set [2], 25 µg/mL (≈ 58.1 µM); in the data set with Pseudomonas aeruginosa it was above 200 µg/mL. Moreover, the MIC in the data set with Staphylococcus aureus [3] is 50 µg/mL (≈ 116 µM); in the data set with Proteus mirabilis it was above 200 µg/mL; in the data set on Escherichia coli, above 200 µg/mL; against Acinetobacter it was above 200 µg/mL; in the data set on Enterococcus faecalis, above 200 µg/mL; in the data set on Streptococcus pneumoniae, above 200 µg/mL. Also, the MIC against Bacillus subtilis, with Bacillus anthracis and in the data set on Proteus vulgaris was above 200 µg/mL throughout. The same compound gave a solubility in data set [4] of 2 µg/mL (≈ 4.65 µM). This compound also registered an IC50 in data set [5] of 292 nM.

As to `O=C(Nc1ncccn1)NC12CC3CC(CC(C3)C1)C2`, the MIC in the data set with Streptococcus pyogenes was above 200 µg/mL; in the data set on Burkholderia cepacia, above 200 µg/mL; in the data set on Staphylococcus aureus [1], above 200 µg/mL; in the data set on Klebsiella pneumoniae, above 200 µg/mL; in data set [2], 200 µg/mL (≈ 734 µM); in the data set with Pseudomonas aeruginosa, above 200 µg/mL. In addition, the MIC against Staphylococcus aureus [3], with Proteus mirabilis, against Escherichia coli, against Acinetobacter, with Enterococcus faecalis and in the data set on Streptococcus pneumoniae was above 200 µg/mL each time. Moreover, the MIC against Bacillus subtilis, in the data set with Bacillus anthracis and in the data set with Proteus vulgaris was above 200 µg/mL in each case. Moreover, the solubility in [4] came to 6.9 µg/mL (≈ 25.3 µM). In data set [5], this compound came in with an IC50 of 24000 nM.

Consider `O=C(Nc1ncncn1)NC12CC3CC(CC(C3)C1)C2`, for which the MIC is above 200 µg/mL in the data set with Streptococcus pyogenes; above 200 µg/mL in the data set with Burkholderia cepacia; above 200 µg/mL against Staphylococcus aureus [1]; above 200 µg/mL against Klebsiella pneumoniae; 125 µg/mL (≈ 457 µM) in data set [2]; above 200 µg/mL with Pseudomonas aeruginosa. Further, the MIC in the data set on Staphylococcus aureus [3], in the data set with Proteus mirabilis, in the data set on Escherichia coli, against Acinetobacter, against Enterococcus faecalis and against Streptococcus pneumoniae was above 200 µg/mL throughout. Besides, the MIC against Bacillus subtilis, in the data set with Bacillus anthracis and with Proteus vulgaris was above 200 µg/mL in each case. The compound further gave a solubility in [4] of 7.2 µg/mL (≈ 26.3 µM). This compound also had an IC50 in data set [5] of 79 nM.

As to `Cc1cc(NC(=O)NC23CC4CC(CC(C4)C2)C3)no1`, the MIC against Streptococcus pyogenes was above 200 µg/mL; with Burkholderia cepacia it was above 200 µg/mL; in the data set on Staphylococcus aureus [1], 200 µg/mL (≈ 726 µM); in the data set with Klebsiella pneumoniae it was above 200 µg/mL; in data set [2], 27 µg/mL (≈ 98.1 µM); against Pseudomonas aeruginosa it was above 200 µg/mL. The MIC in the data set on Staphylococcus aureus [3], against Proteus mirabilis, in the data set with Escherichia coli, with Acinetobacter, with Enterococcus faecalis and against Streptococcus pneumoniae was above 200 µg/mL each time. The MIC in the data set with Bacillus subtilis is 200 µg/mL (≈ 726 µM); in the data set on Bacillus anthracis it was above 200 µg/mL; in the data set on Proteus vulgaris, above 200 µg/mL. Further, the solubility in [4] is 25.9 µg/mL (≈ 94.1 µM). The compound also had an IC50 in data set [5] of 136 nM.

As for `Cc1noc(NS(=O)(=O)c2ccc(NC(=O)NC34CC5CC(CC(C5)C3)C4)cc2)c1C`, the MIC in the data set on Streptococcus pyogenes is above 200 µg/mL; in the data set with Burkholderia cepacia it was above 200 µg/mL; in the data set on Staphylococcus aureus [1], above 200 µg/mL; against Klebsiella pneumoniae, above 200 µg/mL; in data set [2] it was 25 µg/mL (≈ 56.2 µM); against Pseudomonas aeruginosa, above 200 µg/mL. Moreover, the MIC against Staphylococcus aureus [3], against Proteus mirabilis, in the data set with Escherichia coli, in the data set on Acinetobacter, in the data set on Enterococcus faecalis and in the data set with Streptococcus pneumoniae was above 200 µg/mL in each case. Besides, the MIC against Bacillus subtilis, in the data set with Bacillus anthracis and against Proteus vulgaris was above 200 µg/mL throughout. In [4], this compound had a solubility of 27.3 µg/mL (≈ 61.4 µM). Also, the IC50 in data set [5] worked out at 31 nM.
